Source: US20040063680A1, “Method of treating stroke” (priority 2003, published 2004)

melting point: 155 to 157 °C
Compound: CC(C)S(=O)(=O)NCC(C)(F)c1ccc(-c2ccc(CC#N)cc2)cc1 (stereo not shown) [Example 9, 2-{4-[4-(1-fluoro-1-methyl-2-{[(methylethyl)sulfonyl]amino}ethyl)phenyl]phenyl}ethanenitrile]
